{
  "source": "patent US12329158B2",
  "about": "“Large-scale methods of uniformly coating packaging surfaces with a volatile antimicrobial to preserve food freshness” (AGROFRESH INC., priority 2013, dated 2025)",
  "key": {"Botrytis cinerea [1]": {"tested_on": "Botrytis cinerea", "assay": "Volatile application to strawberries in clamshells, treated clamshell vs fruit transfer (Example 21)", "format": "in vivo", "conditions": "0.1 mg/L headspace", "protocol": "Eight strawberries (per repetition, in triplicate) are placed in an industry standard 1-lb PET clamshell with the stem-end facing down.\nCompound A is then mixed with acetone and 100 μL of the mixture is pipetted into a small glass tube. […] Compound A is then introduced into the cabinet containing the clamshell by using the sublimation device set at 180° C. to achieve a final headspace concentration of 0.1 mg/L and equilibrated at 1° C. for 0.5 or 1 hour.\nAfter incubation, both clamshells are removed from the treatment chamber. One clamshell is undisturbed while the fruit from the second clamshell are immediately transferred into a new untreated clamshell. All clamshells are then held at 1° C. for 5 days and then evaluated during an additional 5 days at 21° C. During the 5 days at 21° C., the fruits are evaluated for gray mold severity (scale 0 to 4, with ≤1 indicating marketable fruit and 4 indicating ≥50% of fruit surface covered by pathogen). […] The treated clamshell produces marketable fruit up to 3 days with 0.5 hour treatment (0.1), whereas fruits in new clamshells are unmarketable (2.7). Similarly, the treated clamshell produces marketable fruit up to 5 days with 1 hour treatment (0.4), whereas fruits in new clamshells are unmarketable (1.6). Thus, treatments where berries remain in the treated clamshells have the best level of control due to the compound further volatilizing over time off of the clamshell surface."}, "Aspergillus brasiliensis": {"tested_on": "Aspergillus brasiliensis", "assay": "Headspace treatment of inoculated grains (Example 28)", "format": "in vivo", "conditions": "for Fungal growth on PDA (mm): 10 mg/L headspace", "protocol": "An in vivo assay is used to evaluate the ability of Compound A (1-hydroxy-5-fluoro-1, 3-dihydro-2, 1-benzoxaborole) to control fungal growth of seeds.\nGrains consisting of corn, wheat, rice, rye, millet and barley are surface sterilized with 0.825% NaOCl for 1 minute and rinsed thrice with sterile distilled water. The grains are inoculated by soaking them in a 1×10^6 spores/mL suspension of Aspergillus brasiliensis for 1 minute. The excess inoculum is blotted out with a sterile paper towel before plating five seeds in a Petri plate containing 25 mL of PDA. For determination of efficacy, Compound A is diluted in acetone and added to 42.5 mm Whatman #1 filter disks (Cat. No. 1001-042) attached to the inner side of the lid in a dose dependent manner to achieve a final headspace concentration of 0.4, 2, or 10 mg/L. The acetone is permitted to evaporate for five minutes before closing plate and sealing it with parafilm. The plates are incubated at 23° C. for three days."}, "Penicillium expansum": {"tested_on": "Penicillium expansum", "assay": "In vitro volatile assay (Example 24)", "format": "cell-based", "conditions": "72 h, headspace, 100% control, 3 days at 23 C, read-out: Volatile MIC (mg/L) P. expansum", "protocol": "(§1) Volatile assay: 12-well (6.5 mL volume per well) microtiter plates are used. A 3-mL volume of half strength PDA is added to each well. […] A Whatman #1 filter disk (Cat. No. 1001-0155) is placed, in duplicate, on the underside of a polyethylene PCR plate sealing film. […] The acetone is permitted to evaporate for 5 minutes. The headspace around the inoculum is then sealed inside the well by the film with the adhering disk containing the fungicide. Plates are inverted, placed over the treated disks, and sealed to prevent any of the chemical from flaking from the disk and falling onto the inoculated agar. […] Contact assay: 6-well (16.5 mL volume per well) microtiter plates are used for an in vitro inhibition assay. […] A 7.5-mL volume of the amended media is added to each well of the microtiter plate. […] The plates are sealed with a clear film and incubated for 3 days at 23° C. After incubation, plates are evaluate for percent growth relative to acetone only control."}, "Botrytis cinerea [2]": {"tested_on": "Botrytis cinerea", "assay": "In vitro volatile assay (Example 24)", "format": "cell-based", "conditions": "72 h, headspace, 100% control, 3 days at 23 C, read-out: Volatile MIC (mg/L) B. cinerea", "protocol": "as §1"}},
  "data": [
    {"molecule": "OB1OCc2cc(F)ccc21", "note": "[Compound A, 5-fluoro-1,3-dihydro-1-hydroxy-2,1-benzoxaborole]", "values": [
      {"measurement": "Disease Severity (0 to 4)", "setting": "Botrytis cinerea [1]; Treated clamshell, treatment time 0.5 hour, Day 1", "value": 0.0},
      {"measurement": "Disease Severity (0 to 4)", "setting": "Botrytis cinerea [1]; Treated clamshell, treatment time 0.5 hour, Day 3", "value": 0.1},
      {"measurement": "Disease Severity (0 to 4)", "setting": "Botrytis cinerea [1]; Treated clamshell, treatment time 0.5 hour, Day 5", "value": 2.3},
      {"measurement": "Disease Severity (0 to 4)", "setting": "Botrytis cinerea [1]; Treated clamshell, treatment time 1 hour, Day 1", "value": 0.0},
      {"measurement": "Disease Severity (0 to 4)", "setting": "Botrytis cinerea [1]; Treated clamshell, treatment time 1 hour, Day 3", "value": 0.0},
      {"measurement": "Disease Severity (0 to 4)", "setting": "Botrytis cinerea [1]; Treated clamshell, treatment time 1 hour, Day 5", "value": 0.4},
      {"measurement": "Disease Severity (0 to 4)", "setting": "Botrytis cinerea [1]; Untreated clamshell (fruit transfer), treatment time 0.5 hour, Day 1", "value": 0.0},
      {"measurement": "Disease Severity (0 to 4)", "setting": "Botrytis cinerea [1]; Untreated clamshell (fruit transfer), treatment time 0.5 hour, Day 3", "value": 2.7},
      {"measurement": "Disease Severity (0 to 4)", "setting": "Botrytis cinerea [1]; Untreated clamshell (fruit transfer), treatment time 0.5 hour, Day 5", "value": 3.4},
      {"measurement": "Disease Severity (0 to 4)", "setting": "Botrytis cinerea [1]; Untreated clamshell (fruit transfer), treatment time 1 hour, Day 1", "value": 0.0},
      {"measurement": "Disease Severity (0 to 4)", "setting": "Botrytis cinerea [1]; Untreated clamshell (fruit transfer), treatment time 1 hour, Day 3", "value": 0.1},
      {"measurement": "Disease Severity (0 to 4)", "setting": "Botrytis cinerea [1]; Untreated clamshell (fruit transfer), treatment time 1 hour, Day 5", "value": 1.6},
      {"measurement": "Fungal growth on PDA (mm)", "setting": "Aspergillus brasiliensis; Barley", "value": 0, "unit": "mm"},
      {"measurement": "Fungal growth on PDA (mm)", "setting": "Aspergillus brasiliensis; Corn Dry", "value": 0, "unit": "mm"},
      {"measurement": "Fungal growth on PDA (mm)", "setting": "Aspergillus brasiliensis; Millet", "value": 0, "unit": "mm"},
      {"measurement": "Fungal growth on PDA (mm)", "setting": "Aspergillus brasiliensis; Rice", "value": 0, "unit": "mm"},
      {"measurement": "Fungal growth on PDA (mm)", "setting": "Aspergillus brasiliensis; Rye", "value": 0, "unit": "mm"},
      {"measurement": "Fungal growth on PDA (mm)", "setting": "Aspergillus brasiliensis; Wheat", "value": 0, "unit": "mm"},
      {"measurement": "control of Aspergillus brasiliensis", "setting": "Aspergillus brasiliensis; grains, headspace treatment", "value": 100, "unit": "%"},
      {"measurement": "MIC", "setting": "Penicillium expansum", "value": 2.2, "unit": "mg/L"},
      {"measurement": "MIC", "setting": "Botrytis cinerea [2]", "value": 0.3, "unit": "mg/L"}
    ]}
  ]
}
